# Experimental data: patent US20110172296A1, “MODULATION OF TRANSFORMING GROWTH FACTOR-BETA 1 EXPRESSION” (priority 2010, published 2011)
# Where “and” joins values, the source holds several entries; their conditions need not be identical. Equal entries are not always repeated. e = 2'-O-(2-methoxyethyl) (MOE); d = 2'-deoxy (DNA)
# Columns and labels:
# human TGF-beta1 mRNA [1] = experiment: Antisense inhibition of human TGF-beta1 mRNA in HuVEC cells, single 10 nM dose, Lipofectamine 2000 (Example 2); format: cell-based
# Outline: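 Percent inhibition relative to untreated controls, from qRT-PCR of mRNA corrected for total RNA (RIBOGREEN). Cells were exposed 4 h to 10 nM phosphorothioate 2-13-5 MOE gapmers with Lipofectamine 2000 at 5,000 cells/well. RNA was harvested after roughly 24 h recovery.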
# human TGF-beta1 mRNA [2] = experiment: Dose-dependent antisense inhibition of human TGF-beta1 in HuVEC cells, Lipofectamine 2000, 0.3292-80 nM, comparison with oligos of U.S. Pat. No. 6,436,909 (Example 4); format: cell-based
# Method: The dose-dependent antisense inhibition potential of these gapmers was compared with that of Oligo IDs 104992 and 1138498 from U.S. Pat. No. 6,436,909. Cells were plated at a density of 5,000 cells per well and transfected using Lipofectamine™ 2000 reagent with 0.3292 nM, 0.9877 nM, 2.963 nM, 8.8889 nM, 26.6667 nM, and 80 nM concentrations of antisense oligonucleotide for 4 hours, as specified in Table 4. After a recovery period of approximately 16 hours, RNA was isolated from the cells and TGF-beta1 mRNA levels were measured by quantitative real-time PCR. Human TGF-beta1 primer probe set RTS 2980 was used to measure mRNA levels. TGF-beta1 mRNA levels were adjusted according to total RNA content, as measured by RIBOGREEN®. Results are presented as percent inhibition of TGF-beta1, relative to untreated control cells. […] All the antisense oligonucleotides in Table 4 target human TGF-beta1 mRNA (SEQ ID NO: 1).
# human TGF-beta1 mRNA [3] = experiment: Dose-dependent confirmation of antisense inhibition of human TGF-beta1 in HuVEC cells after large-scale synthesis, Lipofectamine 2000, 0.007-15 nM (Example 5); format: cell-based; settings: for percent inhibition of TGF-beta1: Lipofectamine 2000
# Method: Cells were plated at a density of 5,000 cells per well and transfected using Lipofectamine™ 2000 reagent with 0.007 nM, 0.021 nM, 0.062 nM, 0.185 nM, 0.556 nM, 1.667 nM, 5 nM, and 15 nM concentrations of antisense oligonucleotide for 4 hours, as specified in Table 5. After a recovery period of approximately 16 hours, RNA was isolated from the cells and TGF-beta1 mRNA levels were measured by quantitative real-time PCR. Human TGF-beta1 primer probe set RTS 2980 was used to measure mRNA levels. TGF-beta1 mRNA levels were adjusted according to total RNA content, as measured by RIBOGREEN®. Results are presented as percent inhibition of TGF-beta1, relative to untreated control cells.
# human TGF-beta1 mRNA [4] = experiment: Dose-dependent confirmation of antisense inhibition of human TGF-beta1 in HuVEC cells, electroporation (Example 6); format: cell-based
# Method: The gapmers from Example 5 (see Table 5) were also tested at various doses in HuVEC cells using electroporation as the transfection reagent. Cells were plated at a density of 20,000 cells per well and transfected using electroporation with 0.15625 nM, 0.3125 nM, 0.625 nM, 1.25 nM, 2.5 nM, 5 nM, 10 nM, and 20 nM concentrations of antisense oligonucleotide for 4 hours, as specified in Table 6. After a recovery period of approximately 16 hours, RNA was isolated from the cells and TGF-beta1 mRNA levels were measured by quantitative real-time PCR. TGF-beta1 mRNA levels were adjusted according to total RNA content, as measured by RIBOGREEN®. Results are presented as percent inhibition of TGF-beta1, relative to untreated control cells.
# BALB/c mice [5] = experiment: Tolerability in BALB/c mice: liver, kidney and spleen weights (Example 8); format: in vivo, mouse
# Method: The mice were sacrificed 2 days after the last administration and liver, spleen and kidney weights were measured. Plasma transaminase levels were also evaluated.
# The weights of liver, kidney and spleen of the mice were measured after 4 weeks and liver weights are presented in Table 10 as a percentage change compared to the corresponding weights in the PBS control. The percentage changes in kidney and spleen weight in the treated mice compared to the PBS control were negligible and are not shown.
# murine TGF-beta1 = experiment: Inhibition of murine TGF-beta1 expression (data not shown); set-up: species or system mouse
# BALB/c mice [6] = settings: mouse, in vivo
# Method: (§1) These gapmer oligonucleotides were designed to target human TGF-beta1 and have varying degrees of mismatch with murine TGF-beta1 sequence, as shown in Table 1. Oligo ID Nos. 413982 and 414040 have greater than 3 mismatches to the murine TGF-beta1 sequence. Oligo ID No. 414035 has 2 mismatches to murine TGF-beta1. Oligo ID No. 414036 has no mismatches to murine TGF-beta1.
# (§2) BALB/c mice were injected with 25 mg/kg or 50 mg/kg of Oligo ID Nos. 413982, 414035, 414036, or 414040 twice a week for 4 weeks. A control group of mice was injected with phosphate buffered saline (PBS) twice a week for 4 weeks. Plasma transaminase levels were evaluated bi-weekly.
# (§3) To evaluate the impact of TGF-beta1 antisense oligonucleotides on the hepatic function of mice described above, plasma concentrations of transaminases were measured using an automated clinical chemistry analyzer (Hitachi Olympus AU400e, Melville, N.Y.).
# BALB/c mice [7] = experiment: Tolerability in BALB/c mice: plasma transaminases ALT and AST (Example 7); settings: for aspartate transaminase levels: plasma
# Method: as §1, §2, §3
substance,measurement,setting,value
"414036 (antisense GTGTCCTTAAATACAGCCCC; sugars from the 5' end e2 d13 e5, backbone and methylation of C not given here) [compound 414036]",% inhibition,"human TGF-beta1 mRNA [1]; 10 nM oligonucleotide, HuVEC, relative to untreated control cells, gapmers targeted to SEQ ID NO: 1",87%
same,inhibition of a TGF-beta1 mRNA,"human TGF-beta1 mRNA [1]; threshold lists of Oligo IDs, 10 nM",60% and 65% and 70% and 75% and 80% and 85%
same,percent inhibition of TGF-beta1,human TGF-beta1 mRNA [2]; 0.3292 nM,70%
same,percent inhibition of TGF-beta1,human TGF-beta1 mRNA [2]; 0.9877 nM,83%
same,percent inhibition of TGF-beta1,human TGF-beta1 mRNA [2]; 2.963 nM,91%
same,percent inhibition of TGF-beta1,human TGF-beta1 mRNA [2]; 8.8889 nM,93%
same,percent inhibition of TGF-beta1,human TGF-beta1 mRNA [2]; 26.6667 nM,92%
same,percent inhibition of TGF-beta1,human TGF-beta1 mRNA [2]; 80.0 nM,89%
same,percent inhibition of TGF-beta1,human TGF-beta1 mRNA [3]; 0.007 nM,5%
same,percent inhibition of TGF-beta1,human TGF-beta1 mRNA [3]; 0.021 nM,26%
same,percent inhibition of TGF-beta1,human TGF-beta1 mRNA [3]; 0.062 nM,41%
same,percent inhibition of TGF-beta1,human TGF-beta1 mRNA [3]; 0.185 nM,58%
same,percent inhibition of TGF-beta1,human TGF-beta1 mRNA [3]; 0.556 nM,73%
same,percent inhibition of TGF-beta1,human TGF-beta1 mRNA [3]; 1.667 nM,84%
same,percent inhibition of TGF-beta1,human TGF-beta1 mRNA [3]; 5 nM,91%
same,percent inhibition of TGF-beta1,human TGF-beta1 mRNA [3]; 15 nM,90%
same,IC50,"human TGF-beta1 mRNA [3]; Lipofectamine 2000, Example 5",150 pM
same,percent inhibition of TGF-beta1 mRNA relative to untreated control cells,human TGF-beta1 mRNA [4]; 0.15625 nM oligonucleotide,10%
same,percent inhibition of TGF-beta1 mRNA relative to untreated control cells,human TGF-beta1 mRNA [4]; 0.3125 nM oligonucleotide,38%
same,percent inhibition of TGF-beta1 mRNA relative to untreated control cells,human TGF-beta1 mRNA [4]; 0.625 nM oligonucleotide,55%
same,percent inhibition of TGF-beta1 mRNA relative to untreated control cells,human TGF-beta1 mRNA [4]; 1.25 nM oligonucleotide,74%
same,percent inhibition of TGF-beta1 mRNA relative to untreated control cells,human TGF-beta1 mRNA [4]; 2.5 nM oligonucleotide,83%
same,percent inhibition of TGF-beta1 mRNA relative to untreated control cells,human TGF-beta1 mRNA [4]; 5.00 nM oligonucleotide,92%
same,percent inhibition of TGF-beta1 mRNA relative to untreated control cells,human TGF-beta1 mRNA [4]; 10.00 nM oligonucleotide,94%
same,percent inhibition of TGF-beta1 mRNA relative to untreated control cells,human TGF-beta1 mRNA [4]; 20 nM oligonucleotide,92%
same,Liver % Weight change relative to PBS control,BALB/c mice [5]; 25 mg/kg twice a week for 4 weeks,+17%
same,Liver % Weight change relative to PBS control,BALB/c mice [5]; 50 mg/kg twice a week for 4 weeks,+35%
same,increase in liver weight,"BALB/c mice [5]; 25 or 50 mg/kg twice a week for 4 weeks, vs PBS control",≤ 35%
same,murine TGF-beta1 expression,murine TGF-beta1,inhibits
same,tolerability compared to Oligo ID 105204,BALB/c mice [6],improved tolerability
same,alanine transaminase levels,"BALB/c mice [7]; 25 mg/kg twice a week, Week 2",70 IU/L
same,alanine transaminase levels,"BALB/c mice [7]; 25 mg/kg twice a week, Week 4",61 IU/L
same,aspartate transaminase levels,"BALB/c mice [7]; 25 mg/kg twice a week, Week 2",119 IU/L
same,aspartate transaminase levels,"BALB/c mice [7]; 25 mg/kg twice a week, Week 4",148 IU/L
same,alanine transaminase levels,"BALB/c mice [7]; 50 mg/kg twice a week, Week 2",99 IU/L
same,alanine transaminase levels,"BALB/c mice [7]; 50 mg/kg twice a week, Week 4",190 IU/L
same,aspartate transaminase levels,"BALB/c mice [7]; 50 mg/kg twice a week, Week 2",183 IU/L
same,aspartate transaminase levels,"BALB/c mice [7]; 50 mg/kg twice a week, Week 4",467 IU/L
same,increase in ALT/AST,BALB/c mice [7]; 25 or 50 mg/kg twice a week for four weeks,< 8 fold
